Source: US20220192984A1, “PHARMACEUTICAL COMPOSITIONS COMPRISING OTIC THERAPEUTIC AGENTS AND RELATED METHODS” (Frequency Therapeutics, Inc., priority 2018, published 2022)
Several values for one entry are separate records, joined by “and”; a condition that tells them apart may be missing. Equal values may be shown once.

Tests used:
[1] = molecular target: HER4 (Homo sapiens, UniProt Q15303); conditions: cited from earlier work
[2] = Perilymph Conc. listed for agents (Tables 14-25)
[3] = test system: MAOs A and B; conditions: Table 18, one value, isoform not told; read-out: Select MAOs A and B; cited from earlier work
[4] = test system: Lgr5+ cells; test: Lgr5+ Assay (Lgr5+ cell assay in vitro); type: cell-based
[5] = Table 18; cited from earlier work
[6] = molecular target: ErbB3/HER3 (Homo sapiens, UniProt P21860); conditions: read-out: HER 3 pKi or IC50 (converted); cited from earlier work
ErbB3/HER3, sequence (P21860 20-1342): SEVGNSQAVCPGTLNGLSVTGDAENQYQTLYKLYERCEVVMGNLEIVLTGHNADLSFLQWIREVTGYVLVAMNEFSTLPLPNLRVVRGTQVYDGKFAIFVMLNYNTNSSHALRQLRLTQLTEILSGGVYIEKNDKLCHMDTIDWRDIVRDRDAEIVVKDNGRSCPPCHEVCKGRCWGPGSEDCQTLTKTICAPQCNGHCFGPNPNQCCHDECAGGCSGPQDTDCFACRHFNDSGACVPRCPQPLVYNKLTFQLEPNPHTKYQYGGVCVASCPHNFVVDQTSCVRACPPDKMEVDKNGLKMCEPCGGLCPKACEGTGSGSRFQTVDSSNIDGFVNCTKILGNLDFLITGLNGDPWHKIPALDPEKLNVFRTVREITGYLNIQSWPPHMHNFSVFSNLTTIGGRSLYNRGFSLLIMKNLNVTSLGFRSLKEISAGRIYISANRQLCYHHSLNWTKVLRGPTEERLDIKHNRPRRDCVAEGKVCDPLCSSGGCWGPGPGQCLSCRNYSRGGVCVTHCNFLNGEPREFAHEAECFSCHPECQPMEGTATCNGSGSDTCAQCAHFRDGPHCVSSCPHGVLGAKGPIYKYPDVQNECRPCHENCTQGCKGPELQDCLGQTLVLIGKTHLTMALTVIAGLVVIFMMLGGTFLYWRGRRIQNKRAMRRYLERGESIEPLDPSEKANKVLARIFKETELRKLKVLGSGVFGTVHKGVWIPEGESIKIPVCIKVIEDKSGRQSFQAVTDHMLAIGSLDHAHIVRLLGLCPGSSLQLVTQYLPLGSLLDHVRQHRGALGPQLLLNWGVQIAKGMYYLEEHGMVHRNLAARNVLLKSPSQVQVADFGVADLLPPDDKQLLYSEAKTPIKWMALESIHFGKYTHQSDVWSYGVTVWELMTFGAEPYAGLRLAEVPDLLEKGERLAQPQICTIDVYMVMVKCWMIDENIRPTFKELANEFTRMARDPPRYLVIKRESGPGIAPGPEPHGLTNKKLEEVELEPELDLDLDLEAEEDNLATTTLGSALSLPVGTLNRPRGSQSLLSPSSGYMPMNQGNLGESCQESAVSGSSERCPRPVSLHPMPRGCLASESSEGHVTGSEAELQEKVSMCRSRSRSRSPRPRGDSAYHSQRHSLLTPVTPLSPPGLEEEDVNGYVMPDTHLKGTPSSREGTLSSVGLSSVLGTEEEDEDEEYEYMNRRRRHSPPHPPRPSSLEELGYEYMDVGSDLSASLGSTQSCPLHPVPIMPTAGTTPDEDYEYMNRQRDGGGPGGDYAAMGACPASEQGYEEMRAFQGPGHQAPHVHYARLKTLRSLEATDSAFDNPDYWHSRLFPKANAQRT

[7] = molecular target: GSK-3 alpha (Homo sapiens, UniProt P49840); conditions: cited from earlier work
GSK-3 alpha, sequence (P49840 whole entry): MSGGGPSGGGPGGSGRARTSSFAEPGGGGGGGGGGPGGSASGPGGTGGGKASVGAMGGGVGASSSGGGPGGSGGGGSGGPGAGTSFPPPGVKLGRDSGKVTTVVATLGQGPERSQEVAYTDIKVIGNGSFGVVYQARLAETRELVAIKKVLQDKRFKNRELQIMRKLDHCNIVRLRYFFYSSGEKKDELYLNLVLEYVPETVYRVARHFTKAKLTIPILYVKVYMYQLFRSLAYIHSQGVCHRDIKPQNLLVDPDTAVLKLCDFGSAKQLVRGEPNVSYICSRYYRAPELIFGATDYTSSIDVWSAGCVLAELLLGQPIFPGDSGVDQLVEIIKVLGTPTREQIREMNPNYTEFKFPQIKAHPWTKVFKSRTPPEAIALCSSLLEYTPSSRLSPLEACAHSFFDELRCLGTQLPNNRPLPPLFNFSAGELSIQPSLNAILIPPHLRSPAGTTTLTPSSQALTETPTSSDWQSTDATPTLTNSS

[8] = molecular target: GSK-3 beta (Homo sapiens, UniProt P49841); conditions: cited from earlier work
GSK-3 beta, sequence (P49841 whole entry): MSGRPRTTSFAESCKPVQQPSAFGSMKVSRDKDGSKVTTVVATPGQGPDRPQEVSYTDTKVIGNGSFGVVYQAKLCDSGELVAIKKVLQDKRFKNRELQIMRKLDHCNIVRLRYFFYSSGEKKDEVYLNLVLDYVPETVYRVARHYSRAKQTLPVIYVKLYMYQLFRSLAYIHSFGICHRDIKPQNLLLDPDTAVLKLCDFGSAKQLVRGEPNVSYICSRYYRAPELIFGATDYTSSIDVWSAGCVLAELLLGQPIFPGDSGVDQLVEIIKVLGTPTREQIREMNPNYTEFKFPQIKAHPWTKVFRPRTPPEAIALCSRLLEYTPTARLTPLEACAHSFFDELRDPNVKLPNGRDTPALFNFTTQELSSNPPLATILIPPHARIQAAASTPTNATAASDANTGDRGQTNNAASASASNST

[9] = test system: HDAC; conditions: Mechanism HDAC Inhib 1, 2, 3, 8; cited from earlier work
[10] = Stability of the filtered solution prior to lyophilization by HPLC (Example 2); type: physicochemical; conditions: room temperature
Experimental: Stability Analysis: Prior to lyophilization, the stability of the filtered solution was analyzed by HPLC. The solution was held at room temperature for 4 hours, and samples of the solution was analyzed by HPLC during the period of time. […] Further, about 100% of sodium valproate remained in the solution.

[11] = Stability of the reconstituted test composition in refrigerated syringes (Example 13); type: physicochemical; conditions: for time assay levels remained stable with initial levels: reconstituted test composition in polypropylene syringes, refrigerated
[12] = Stability of the non-lyophilized test composition under refrigeration (Example 13); type: physicochemical; conditions: freshly compounded test composition, refrigerator, 0 to 120 hours
[13] = Stability of reconstituted higher concentration formulation at 2-8° C. for 8 hours (Table D); type: physicochemical; conditions: Post Lyo
[14] = Storage stability of the lyophilized test composition (Table 27); type: physicochemical
Experimental: The lyophilized composition was stored in a glass container with rubber closure and crimp seal under refrigeration for 6 months and at −20° C. for 24 months.

[15] = type: physicochemical; conditions: lyophilized composition (Dosage 1) stored at 5° C., room temperature or 40° C. under 75% relative humidity in the dark
Experimental: Stability Analysis: The stability of the lyophilized composition formulation (Dosage 1) was analyzed upon storage at 5° C., room temperature, or 40° C. under 75% relative humidity in the dark Samples were taken at various time points, reconstituted as described in Example 4 and samples analyzed by HPLC. […] About 100% of sodium valproate remained.
Long-term stability of the lyophilized composition formulation (Dosage 1) was tested. The composition was held at room temperature (ambient) in the dark for two months and reconstituted as described in Example 4 below.

[16] = Reconstitution time of lyophilized compositions (Tables E, 28, 35); type: physicochemical
Experimental: Diluent 1, 0.85 mL+lyophilized cake. […] Gentle tapping on the exterior of the vessel to help the cake dissolve in the Diluent may be required while keeping it in fridge (or ice bath). To avoid degradation of the composition, minimize stirring and/or vortexing.
Diluent 1, 0.95 mL+Placebo cake: Using a syringe, add the Diluent to the Placebo cake, and rest in a fridge or ice bath (2-8° C.) for 60 minutes or until clear solution is formed. Gentle tapping on the exterior of the vessel to help the cake dissolve in the Diluent may be required while keeping it in fridge (or ice bath). To avoid degradation of the composition, minimize stirring and/or vortexing.
Powder P407 (i.e. non-lyophilized) can be obtained from BASF.
Reconstitution of lyophilized P407 (Placebo) and powder P407 was done using 850 μL Diluent (see above for example preparations of a Diluent) in a vial.
Therefore, to probe the effect of salts other than sodium valproate on reconstitution time, a poloxamer solution at 16.15% concentration either alone or including a salt (e.g. an inorganic salt or organic acid salt) at a concentration of 533.25 mM, was lyophilized. The lyophilized material was then reconstituted using Diluent for reconstitution (6.4% DMSO by wt. % in water) or with water.
Building on the results of Examples 14 to 16, further lyophilized compositions were manufactured and had their reconstitution times evaluated. […] The further lyophilized compositions were made in accordance with Example 10, and reconstituted in accordance with Example 12.

[17] = molecular target: T1, KDM1b (Homo sapiens, UniProt Q8NB78); conditions: Table 18; read-out: Select KDM1b; cited from earlier work
T1 sequence (Q8NB78 1-822): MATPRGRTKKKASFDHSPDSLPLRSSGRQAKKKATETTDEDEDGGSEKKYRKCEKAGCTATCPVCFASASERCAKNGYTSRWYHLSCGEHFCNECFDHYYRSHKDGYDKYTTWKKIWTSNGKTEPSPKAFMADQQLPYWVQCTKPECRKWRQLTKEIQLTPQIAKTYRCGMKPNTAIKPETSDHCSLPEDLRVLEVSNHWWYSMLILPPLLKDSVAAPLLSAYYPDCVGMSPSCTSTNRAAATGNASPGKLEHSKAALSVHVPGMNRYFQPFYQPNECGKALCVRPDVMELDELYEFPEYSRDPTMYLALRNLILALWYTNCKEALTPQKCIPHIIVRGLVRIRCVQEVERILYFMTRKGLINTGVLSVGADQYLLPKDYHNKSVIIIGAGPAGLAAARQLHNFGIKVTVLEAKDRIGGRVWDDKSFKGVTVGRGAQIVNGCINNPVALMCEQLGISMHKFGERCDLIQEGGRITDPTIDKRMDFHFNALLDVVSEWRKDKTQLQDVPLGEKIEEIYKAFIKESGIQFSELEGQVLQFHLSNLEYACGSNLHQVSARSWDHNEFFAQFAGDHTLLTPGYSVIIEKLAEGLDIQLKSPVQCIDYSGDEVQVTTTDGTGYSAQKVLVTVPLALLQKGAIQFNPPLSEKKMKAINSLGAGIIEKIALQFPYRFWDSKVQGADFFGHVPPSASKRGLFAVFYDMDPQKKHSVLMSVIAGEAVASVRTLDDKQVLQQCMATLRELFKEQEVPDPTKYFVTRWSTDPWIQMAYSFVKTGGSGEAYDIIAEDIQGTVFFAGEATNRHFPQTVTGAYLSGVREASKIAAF

[18] = molecular target: LSD1 (Homo sapiens, UniProt O60341); conditions: Table 18; read-out: Literat. Cell EC50; cited from earlier work
[19] = Order of compounding of the test composition (Example 11, Table 26); type: physicochemical; conditions: organic solvents
Experimental: The first step in the sequence of compounding was to add pre-weighed solid sodium valproate to the stock P407 aqueous solution over ice. The temperature of P407 solution is important to keep the viscosity of this thermoreversible polymer in a liquid free-flowing state. After a clear solution was obtained, the CHIR99021-DMSO stock solution was added slowly to the NaVPA-P407-water solution. […] CHIR99021 also begins to degrade after extended periods of time in solution.

[20] = Table 14, listed concentration, no test described
[21] = lyophilized composition GMP lot B17030018, Refrigerated, 1 month
[22] = lyophilized composition GMP lot B17030018, Refrigerated, 2 months
[23] = lyophilized composition GMP lot B17030018, Refrigerated, 3 months
[24] = lyophilized composition GMP lot B17030018, Refrigerated, 6 months
[25] = lyophilized composition GMP lot B17030018, Release, 0 month
[26] = lyophilized composition GMP lot B17030018, −20, 1 month
[27] = lyophilized composition GMP lot B17030018, −20, 2 months
[28] = lyophilized composition GMP lot B17030018, −20, 3 months
[29] = lyophilized composition GMP lot B17030018, −20, 6 months
[30] = lyophilized composition GMP lot B17030018, −20, 9 months
[31] = lyophilized composition GMP lot B17030018, −20, 12 months
[32] = lyophilized composition GMP lot B17030018, −20, 18 months
[33] = lyophilized composition GMP lot B17030018, −20, 24 months

HER4, sequence (Q15303 26-1308, species assumed): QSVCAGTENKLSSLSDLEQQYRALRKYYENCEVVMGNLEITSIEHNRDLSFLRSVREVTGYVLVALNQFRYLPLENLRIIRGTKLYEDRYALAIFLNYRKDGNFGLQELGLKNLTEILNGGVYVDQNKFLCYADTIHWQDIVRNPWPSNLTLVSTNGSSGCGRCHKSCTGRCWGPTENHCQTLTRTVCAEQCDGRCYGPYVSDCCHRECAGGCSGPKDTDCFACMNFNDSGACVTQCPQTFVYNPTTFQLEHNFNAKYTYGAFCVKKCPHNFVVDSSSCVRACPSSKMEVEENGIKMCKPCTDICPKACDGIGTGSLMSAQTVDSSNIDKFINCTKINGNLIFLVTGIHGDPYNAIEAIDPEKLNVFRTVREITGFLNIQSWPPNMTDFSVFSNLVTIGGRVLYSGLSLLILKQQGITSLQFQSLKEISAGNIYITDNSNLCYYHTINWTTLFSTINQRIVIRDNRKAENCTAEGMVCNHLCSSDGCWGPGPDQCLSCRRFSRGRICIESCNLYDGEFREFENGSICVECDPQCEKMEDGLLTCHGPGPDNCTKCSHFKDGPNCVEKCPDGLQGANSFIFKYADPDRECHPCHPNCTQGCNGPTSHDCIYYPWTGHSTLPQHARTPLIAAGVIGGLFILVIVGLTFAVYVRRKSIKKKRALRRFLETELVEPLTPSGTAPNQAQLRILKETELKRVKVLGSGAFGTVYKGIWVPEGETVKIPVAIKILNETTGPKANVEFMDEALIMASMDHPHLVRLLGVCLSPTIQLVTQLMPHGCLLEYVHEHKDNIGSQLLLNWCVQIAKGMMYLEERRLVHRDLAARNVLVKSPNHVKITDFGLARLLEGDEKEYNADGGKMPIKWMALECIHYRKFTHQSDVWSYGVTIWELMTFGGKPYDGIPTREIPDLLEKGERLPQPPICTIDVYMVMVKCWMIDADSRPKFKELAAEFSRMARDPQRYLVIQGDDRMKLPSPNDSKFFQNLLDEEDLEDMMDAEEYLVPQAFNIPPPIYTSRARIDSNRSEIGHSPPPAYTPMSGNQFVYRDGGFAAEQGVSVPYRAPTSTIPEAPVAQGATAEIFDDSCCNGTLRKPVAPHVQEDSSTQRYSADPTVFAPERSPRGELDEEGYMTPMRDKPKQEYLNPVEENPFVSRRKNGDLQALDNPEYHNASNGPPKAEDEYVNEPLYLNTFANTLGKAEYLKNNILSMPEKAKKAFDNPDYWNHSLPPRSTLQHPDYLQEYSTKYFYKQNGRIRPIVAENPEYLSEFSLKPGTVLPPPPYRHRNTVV

CNC(=O)CN1CCC(Oc2cc3c(Nc4cccc(Cl)c4F)ncnc3cc2OC)CC1 [Sapitinib/AZD8931/]
IC50 [1]: 3 nM

N[C@@H]1C[C@H]1c1ccccc1 [TCP]
Perilymph Conc ([2]; Table 18, range or its upper end): 0.1 to 20 µM
IC50 [3]: 1000 nM
Lgr5+ Assay ([4]; Table 18, concentration range or its upper end): 0.1 to 20 µM
Human Plasma Conc Cmax [5]: 0.03 to 0.2 µg/mL

CN1CCN(Cc2ccc(NC(=O)Cc3ccc(Oc4cc(NC(=O)C5CC5)ncn4)cc3)cc2C(F)(F)F)CC1 [WS6]
IC50 [6]: 280 nM

O=C1NC(=O)C(c2cnc3ccccn23)=C1c1cn2c3c(cc(F)cc13)CN(C(=O)N1CCCCC1)CC2 [LY2090314, 3-(9-fluoro-2-(piperidine-1-carbonyl)-1,2,3,4-tetrahydro-[1,4]diazepino[6,7,1-hi]indol-7-yl)-4-(imidazo[1,2-a]pyridin-3-yl)-1H-pyrrole-2,5-dione]
Perilymph Conc [2, 20]: 0.005 to 0.02 µM
Lgr5+ Assay ([4]; Table 14): 0.005 to 0.02 µM
GSK-3 alpha [7]: 2.1 nM
GSK-3 beta [8]: 0.9 nM

CCCC(CCC)C(=O)O [Sodium Valproate, Sodium 2-propylpentanoate]
Perilymph Conc ([2]; HDAC inhibitor table, upper end of the wrapped range 100 uM-4 mM, no test described): ≤ 4000 µM
HDAC Potenc [9]: 39 to 161 µM
sodium valproate remained in the solution ([10]; 4 hours): about 100%
time assay levels remained stable with initial levels [11]: 6 h
assay level ([11]; reconstituted test composition in refrigerated syringes, up to 24 hours): remained constant over this time
assay level over time [12]: remained constant over this time
Lgr5+ Assay ([4]; HDAC inhibitor table, upper end of the wrapped range 100 uM-4 mM): ≤ 4000 µM
% Rel Error [13]: 7.3% and 5.5%
Conc. [13]: 102900 µg/mL and 101100 µg/mL
% Rel Error ([13]; 24 Hrs, refrigerator 2-8° C.): 5.3% and 7.5%
Conc. ([13]; 24 Hrs, refrigerator 2-8° C.): 101000 µg/mL and 103100 µg/mL
Assay (drug content) [14, 21]: 100%
Assay (drug content) [14, 22]: 100%
Assay (drug content) [14, 23]: 100%
Assay (drug content) [14, 24]: 99%
Assay (drug content) [14, 25]: 100%
Assay (drug content) [14, 26]: 101%
Assay (drug content) [14, 27]: 100%
Assay (drug content) [14, 28]: 100%
Assay (drug content) [14, 29]: 100%
Assay (drug content) [14, 30]: 99%
Assay (drug content) [14, 31]: 99%
Assay (drug content) [14, 32]: 101%
Assay (drug content) [14, 33]: 98%
sodium valproate remained [15]: About 100%
Reconstitution time (minutes) water + DMSO ([16]; lyophilized 16.15% P407 with salt at 533.25 mM, reconstituted with Diluent ([…] DMSO in water)): 25 min
Reconstitution time (minutes) with water ([16]; lyophilized 16.15% P407 with salt at 533.25 mM, reconstituted with water): 20 min
reconstitution time of lyophilized poloxamer with added organic acid salt ([16]; poloxamer 16.15%, salt 533.25 mM): 420 min

O=C(O)c1ccc(CN2CCC(CN[C@@H]3C[C@H]3c3ccccc3)CC2)cc1 [GSK-2879552]
Perilymph Conc ([2]; Table 18, lower end of range): ≥ 40 nM-
Perilymph Conc ([2]; Table 18, upper end of range): ≤ 30 µM
Lgr5+ Assay ([4]; Table 18, lower end of concentration range): ≥ 40 nM-
IC50 [17]: 20000 nM
EC50 [18]: 2 to 240 nM
Human Plasma Conc [5]: 1 to 100 nM

Cc1cnc(-c2cnc(NCCNc3ccc(C#N)cn3)nc2-c2ccc(Cl)cc2Cl)[nH]1 [CHIR99021]
Perilymph Conc [2, 20]: 2 to 6 µM
total impurities formed for CHIR99021 ([10]; over 4 hours): about 4.6%
time assay levels remained stable with initial levels [11]: 6 h
decrease of assay level from its initial level ([11]; reconstituted test composition in refrigerated syringes, sometime between 8 and 24 hours): 37%
assay level over time [12]: decreased from its initial level over time
% Rel Error [13]: 2.2% and 2.4%
Conc. [13]: 3470 µg/mL and 3480 µg/mL
% Rel Error ([13]; 24 Hrs, refrigerator 2-8° C.): −1.3% and 0.6%
Conc. ([13]; 24 Hrs, refrigerator 2-8° C.): 3360 µg/mL and 3420 µg/mL
solubility of CHIR99021 [19]: very limited in almost all organic solvents except polar solvents, such as DMSO
Assay (drug content) [14, 21]: 105%
Assay (drug content) [14, 22]: 105%
Assay (drug content) [14, 23]: 104%
Assay (drug content) [14, 24]: 102%
Assay (drug content) [14, 25]: 103%
Assay (drug content) [14, 26]: 107%
Assay (drug content) [14, 27]: 107%
Assay (drug content) [14, 28]: 104%
Assay (drug content) [14, 29]: 103%
Assay (drug content) [14, 30]: 102%
Assay (drug content) [14, 31]: 99%
Assay (drug content) [14, 32]: 100%
Assay (drug content) [14, 33]: 100%
